Assay results from patent US8398987B2, “Use of platelet glycopeptide IIIa epitopes in the treatment of immune thrombocytopenic purpura” (The University Court of the University of Aberdeen, priority 2007, dated 2013).
Entries after “also recorded” stand apart in the source; their conditions may differ.

Assays:
Format in all cases: cell-based, human
[1] = test system: HLA-class II molecules (HLA-DR, -DQ, -DP); test: HLA restriction of PBMC proliferating in response to GPIIIa peptides (blocking antibodies); conditions: PBMC from four AITP patients
Procedure: To determine the HLA Class II restriction of proliferating T cells, […] anti-DR, anti-DQ or anti-DP blocking monoclonal antibodies (Pharmingen, Oxon, UK) were added to replicate cultures before stimulation.
Dominant peptides 2(aa6-20), 47 (aa361-375), 53 (aa421-435) and 82 (aa711-725) were selected for these experiments and used to stimulate PBMC from four AITP patients, in the presence or absence of anti-DP, -DQ or DR. Representative results from one patient are illustrated in FIG. 7.

PBMC from AITP patients = test: T cell proliferation assay, PBMC from AITP patients stimulated with GPIIIa peptides; set-up: PBMC proliferation to control recall antigen or mitogen: dose or concentration left out as unconfirmed; conditions: for PBMC proliferation in serial samples: patient AITP22, three occasions over 56 weeks (presentation, 44 weeks, 56 weeks); for AITP Patients with PBMC Response to Peptide, No High Affinity DR Expressed: patients not expressing an HLA-DR type predicted to bind the peptide with high affinity; for AITP Patients with PBMC Response to Peptide, High Affinity DR Expressed: patients expressing an HLA-DR type predicted to bind the peptide with high affinity
Excerpt: (§1) The human platelet membrane GPIIIa amino acid sequence (Genebank Accession no: M35999) was synthesized (Pepceuticals, Nottingham, UK) as a complete panel of 86 15-mer peptides, overlapping by 5-10 amino acids (Table 3). Peptide purity was monitored by amino acid analysis and mass spectrometry as reported previously by Barker R N et al in Blood 1997; 90:2701-2715, Scott L et al in Blood 2000; 96:4011-4019 and Cairns L S et al in J Am Soc Nephrol 2003; 14:2801-2812. The peptides were used for stimulation of T cells at the previously determined optimum concentration of […] in culture.
(§2) The antigen mycobacterial purified protein derivative (PPD) (Statens Serumintitut, Denmark) was added to cultures at […] to stimulate positive control recall T cell responses. Concanavalin A (Con A) (Sigma, Poole, Dorset, UK) was used at […] as a positive control T cell mitogen.
Mononuclear cells were recovered from anti-coagulated samples of peripheral blood from AITP patients and control donors by density gradient centrifugation (Lymphoprep; Nycomed, Denmark). Cell viability determined by trypan blue exclusion was greater than 90% in all samples.
Assays of T cell proliferation were carried out, as described by Scott L et al in Blood 2000; 96:4011-4019, Cairns L S et al in J Am Soc Nephrol 2003; 14:2801-2812 and Sukati H et al in Transfusion 2005; 45:1165-1177, under culture conditions designed to favor responses by previously activated T cells, rather than primary responses. Briefly, PBMC were cultured at 1.25×10^6 cells per mL in Alpha Modification of Eagle's Medium (Sigma, Poole, Dorset, UK) supplemented with 5% autologous serum. Synthetic GPIIIa peptides or control stimuli were added to cultures, which were incubated at 37° C. in a humidified atmosphere of 95% air and 5% CO2. T cell proliferation was estimated from the incorporation of 3H-thymidine in triplicate […] samples withdrawn from the cultures 5 days after stimulation, when recall responses peak. Results are presented either as the mean counts per minute (CPM)±SD of the triplicate samples, or as a stimulation index (SI) expressing the ratio of mean CPM in stimulated versus unstimulated control cultures. An SI>3 is interpreted as a positive response.

[2] = test system: PBMC from healthy control donors; test: T cell proliferation assay, PBMC from healthy control donors
Excerpt: as §1, §2
Mononuclear cells were recovered from anti-coagulated samples of peripheral blood from AITP patients and control donors by density gradient centrifugation (Lymphoprep; Nycomed, Denmark). Cell viability determined by trypan blue exclusion was greater than 90% in all samples. […]

Substance | blocking of peptide-induced proliferation by anti-DP, -DQ or -DR [1] | PBMC proliferation in serial samples (PBMC from AITP patients) | AITP Patients with PBMC Response to Peptide, No High Affinity DR Expressed (PBMC from AITP patients) | stimulation of PBMC from control donors [2] | Stimulatory Peptides (SI > 3) (PBMC from AITP patients; PBMC from patient AITP26) | PBMC proliferation to control recall antigen or mitogen (PBMC from AITP patients; PBMC from all patients and control donors) | AITP Patients with PBMC Response to Peptide, High Affinity DR Expressed (PBMC from AITP patients)
ALLIWKLLITIHDRK (listed as Homo sapiens) [peptide 82, GPIIIa residues 711-725] | blocked by at least one of the antibodies | initially absent but appeared at later time points | AITP12 | only dominant sequence to induce proliferation by Th cells from control donors; also recorded: more than one control donor |  |  | 
CECDDFSCVRYKGEM (listed as Homo sapiens) [compound 63, GPIIIa residues 521-535] |  |  |  |  | > 63 |  | 
Concanavalin A [Con A, reference compound] |  |  |  |  |  | proliferated normally | 
DDCVVRFQYYEDSSG (listed as Homo sapiens) [peptide 77, GPIIIa residues 661-675] |  | seen only in the second sample | AITP2,; also recorded: AITP8 |  |  |  | AITP11,; also recorded: AITP16,; also recorded: AITP22
DLPEELSLSFNATCL (listed as Homo sapiens) [compound 47, GPIIIa residues 361-375] | blocked by at least one of the antibodies | initially absent but appeared at later time points |  |  |  |  | None
FKDSLIVQVTFDCDC (listed as Homo sapiens) [compound 53, GPIIIa residues 421-435] | blocked by at least one of the antibodies | initially absent but appeared at later time points | AITP1,; also recorded: AITP8,; also recorded: AITP9,; also recorded: AITP10,; also recorded: AITP22,; also recorded: AITP24 |  |  |  | AITP11,; also recorded: AITP-12,; also recorded: AITP18,; also recorded: AITP20
GVLSMDSSNVLQLIV (listed as Homo sapiens) [compound 44, GPIIIa residues 331-345] |  |  | AITP1,; also recorded: AITP3,; also recorded: AITP10,; also recorded: AITP18,; also recorded: AITP21, |  |  |  | AITP8,; also recorded: AITP24
PGSYGDTCEKCPTCP (listed as Homo sapiens) [compound 70, GPIIIa residues 591-605] |  |  | AITP2,; also recorded: AITP7,; also recorded: AITP15,; also recorded: AITP20,; also recorded: AITP24 |  |  |  | None
TTRGVSSCQQCLAVS (listed as Homo sapiens) [peptide 2, GPIIIa residues 6-20] | blocked by at least one of the antibodies | elicited proliferation from all samples |  |  |  |  | None
